For 89 molecules, melting point results are on record in a melting point compilation (Tetko et al.; mined from patent text by program, amines drawn as free bases though some values may be those of a salt).

For orientation: melting point means the temperature, or range, at which the solid turns liquid. Turning to `O=C1NC(NCC2CC2)=N/C1=C\c1c[nH]c2ncc(N3CCOCC3)cc12`, the melting point amounted to 331 °C.

`COc1cc2nc(N)nc(-c3cccc(OC(F)(F)F)c3)c2cc1OC` showed a melting point of 233 to 235 °C.

Molecule `[N-]=[N+]=Nc1cc(N)cc(I)c1` registered a melting point of 89 to 91 °C.

Consider `O=C(NS(=O)(=O)NCCCN1CCC(Oc2ccc(Cl)c(Cl)c2)CC1)c1ccccc1`, for which the melting point fell in the range of 93 to 106 °C.

The molecule `COc1ccccc1N1CCN(CCNC(=O)CCN2CCC(c3c[nH]c4cc(F)ccc34)CC2)CC1` returned a melting point of 68 to 70 °C.

As to `CC(=O)N1c2ccc(-c3ccc(C=O)cc3)cc2C(NC=O)CC1C` (centres undefined), the melting point stood at 85.6 °C.

`Cc1ccccc1[C@@H]1CN(C(=O)C2CCN(C(=O)CO)CC2)CC[C@H]1C(=O)N(C)Cc1cc(C(F)(F)F)cc(C(F)(F)F)c1` (relative stereo) showed a melting point of 173 to 174 °C.

`CCCCn1c(=O)c2[nH]c(N3CCCCC3)nc2n(CCCC)c1=O` displayed a melting point of 221 °C.

`COCCOC1(S(C)=O)C=CC=C(C(=O)c2cnoc2C2CC2)C1Br` (centres undefined) registered a melting point of 86.2 to 87 °C.

Regarding `CC(C)COc1cc(C(=O)O)cc(N)c1C(=O)c1ccccc1`, the melting point lay within 192 to 196 °C.

`COc1cc2nc(N)nc(-c3cc(I)c(O)c(I)c3)c2cc1OC` yielded a melting point of 259 to 260 °C.

`Oc1ccc2c(c1)CCN(Cc1ccc3c(c1)OCO3)C2`: the melting point lay within 169 to 172 °C.

For `CC1CCc2c(C#N)c(F)cc3c(=O)c(C(=O)O)cn1c23` (centres undefined), the melting point is 300 °C.

The molecule `Cc1oc(-c2ccc(OCC(F)(F)F)cc2)nc1COc1ccc(CN(O)C(N)=O)cc1` gave a melting point of 159 to 161 °C.

`OC(c1ccccc1)(c1ccccc1)C1CCN(Cc2ccccc2)CC1` registered a melting point of 89.5 to 90.5 °C.

Consider `CSc1nc(-c2ccccn2)n(-c2ccc(C)c(C)c2)c(=O)c1C#N`, for which the melting point lay within 218 to 223 °C.

In the case of `COc1cccc(Nc2n[nH]c(N=CN(C)C)c2C#N)c1`, the melting point was 227 to 231 °C.

The molecule `CC(=O)c1ccc(N2CCN(CCC3CN(C)C(=O)O3)CC2)cc1` (centres undefined) registered a melting point of 142 to 145 °C.

Molecule `COc1cc(-c2csc(CN(C)C(=O)OC(C)(C)C)n2)cc(OC)c1OC(C)=O` came in with a melting point of 135 to 137 °C.

`COc1cc(COc2ncccc2C=O)ccc1OCc1nc(-c2ccco2)oc1C` yielded a melting point of 120 to 121 °C.

Consider `CC1(C)COC(c2ccc(S)cc2)OC1`, for which the melting point fell in the range of 134 to 136 °C.

Molecule `Nc1cnn2c1NCC2` returned a melting point of 177 to 179 °C.

Regarding `CN(C)C(=O)C(C#N)=Cc1cc(O)c(O)c([N+](=O)[O-])c1`, the melting point is 183 to 185 °C.

On to `COC(=O)c1c(OCC#N)c2cc(OC)ccc2n1C`, for which the melting point was 136 to 137 °C.

`O=C(CSCCCCOc1ccccc1)NNC(=O)c1ccc(O)cc1` gave a melting point of 113 to 115 °C.

On to `CC1CC(NC(=O)C(F)(F)F)=NN1c1ccc(Cl)cc1` (centres undefined), for which the melting point was in the range of 170 to 172 °C.

Molecule `CCCc1c(OCCCSc2nnc(NC(=O)CC(=O)O)s2)ccc(C(C)=O)c1O` registered a melting point of 172 to 174 °C.

Consider `COc1cc(-c2csc(C(N)=O)n2)cc(Cl)c1OC`, for which the melting point fell in the range of 178 to 180 °C.

Take `O=C(Nc1cccnc1)N1CCc2c1ccc(Cl)c2Cl`: the melting point was above 240 °C.

Regarding `CC(=O)OC(OC(C)=O)c1ccc(C#N)cc1`, the melting point lay within 104 to 107 °C.

As to `CCOC(=O)Cn1ncc(-c2ccc(F)cc2)c1-c1ccccc1`, the melting point lay within 86 to 87 °C.

Take `CCNc1nc(N=[N+]=[N-])nc(NC(C)C(F)(F)F)n1` (centres undefined): the melting point lay in the range of 69 to 75 °C.

Take `O=C(N[C@@H](Cc1ccc2ccccc2c1)[C@H]1CO1)OCc1ccccc1`: the melting point was 115 to 116 °C.

Molecule `N#CCCCOc1ccc(C(=O)Nc2ccc(-n3nc(-c4cccnc4)cc3C#N)cc2)cn1` displayed a melting point of 190 to 191 °C.

The molecule `COc1cc2[nH]c3c(c2cc1OC)CC(=CC1CCN(Cc2ccccc2)CC1)C3=O` returned a melting point of 244 to 245 °C.

As for `Nc1nc(N)c(-c2cc(Cl)cc(Cl)c2Cl)c(CF)n1`, the melting point lay within 215 to 217 °C.

Regarding `CC(C)CN(CC(C)C)c1ccc(C(=O)c2ccccc2)cc1[N+](=O)[O-]`, the melting point is 80 to 81 °C.

The molecule `Cc1cnc2c(Cl)nc3cc4ccccc4cc3n12` registered a melting point of 221 to 223 °C.

For the molecule `COC(=O)c1ccc([N+](=O)[O-])cc1S(=O)(=O)N(C)C`, the melting point fell in the range of 93 to 96 °C.

The molecule `COc1ccc(CCc2oc3cccc(O)c3c2C)cc1` displayed a melting point of 72 to 75 °C.

Molecule `CCSc1nc2c(C)sc(C(=O)OC)c2n1Cc1ccc(-c2ccccc2C#N)cc1` displayed a melting point of 149 to 151 °C.

With `CCOC(=O)CCN(C)CC(C(=O)OC)c1cc(OC)c(CC)c(OC)c1` (centres undefined), the melting point fell in the range of 74 to 75 °C.

`Cn1c(=O)c(C#N)c(N2CCN(C(=O)c3cccs3)CC2)c2cc(F)ccc21` had a melting point of 286 °C.

The molecule `CCCn1c(=O)cc(S(=O)(=O)CCC)n(Cc2ccc(-c3ccccc3-c3nnn[nH]3)cc2)c1=O` registered a melting point of 128 to 135 °C.

`Cc1cc(C(=O)c2[nH]c(=O)[nH]c(=O)c2C(C)C)cc([N+](=O)[O-])c1` registered a melting point of 124 to 125 °C.

For the molecule `Brc1ccc(Cc2cc(Br)c(Cc3ccc(Br)cc3)cc2Br)cc1`, the melting point was in the range of 161 to 167 °C.

Molecule `CC(C)(C)OC(=O)N1CCC2(C=Cc3ccccc32)CC1` displayed a melting point of 128 °C.

Regarding `Clc1ccc2c(C3=CCNCC3)c[nH]c2c1Cl`, the melting point is 252 to 254 °C.

For `CCC(CCNC(=O)C(C#N)=Cc1ccc(O)c(O)c1)NC(=O)C(C#N)=Cc1ccc(O)c(O)c1` (centres undefined), the melting point was determined as 252 °C.

With `CCOC(=O)c1[nH]c(-n2ccc(OCc3ccccc3)cc2=O)nc1C`, the melting point fell in the range of 135 to 136 °C.

Regarding `CCC(C)(C)NC(=O)c1ccc(S(=O)(=O)Cl)c(OC)c1`, the melting point was determined as 104 °C.

`CCCc1nc2c(N)nc(C)c(C)c2n1CCCCCS(=O)(=O)c1ccc(C(F)(F)F)cc1` displayed a melting point of 172 to 174 °C.

The molecule `CN(O)C(=O)Cc1ccc(-c2ccc(OCc3ccc4ccccc4n3)cc2)c(F)c1` returned a melting point of 153 to 155 °C.

`CN1CCN(c2c(F)c(NCc3ccccc3)c3c(=O)c(C(=O)O)cn(C4CC4)c3c2F)CC1`: the melting point lay within 132 to 133 °C.

As for `NS(=O)(=O)c1ccc(-c2cnn(-c3ccc(F)c(F)c3)c(=O)c2Oc2ccc(F)cc2)cc1F`, the melting point was in the range of 224 to 226 °C.

For the molecule `CC(=O)CC(C)(C)Cn1c(C)nc2c(N)nc3ccccc3c21`, the melting point is 223 to 225 °C.

Regarding `CCC(CC)Nc1cc(C)nc2c1ncn2-c1c(C)cc(C)cc1C`, the melting point lay in the range of 78 to 80 °C.

In the case of `CC(C)(C)OC(=O)Nc1ccc(C(=O)O)cc1C(F)(F)F`, the melting point is 197 to 198 °C.

`Cc1nnc(C)n1-c1ccc(C#N)cc1` came in with a melting point above 230 °C.

Molecule `COC(=O)c1ccn(C)c1S(=O)(=O)NC(C)(C)C` came in with a melting point of 105 to 108 °C.

Regarding `COc1cc2c(cc1F)CCC2=O`, the melting point was 152 to 154 °C.

Regarding `C=CCCC(C)(NC(c1ccccc1)c1ccccc1)P(O)O` (centres undefined), the melting point is 180 °C.

As for `Cc1cccc(NC(=O)NC2CN(C(=O)C(C)C)c3ccccc3N(CC(=O)c3ccccc3C)C2=O)c1` (centres undefined), the melting point was 174 to 176 °C.

Take `CCc1cc2cc(O)ccc2c(Oc2ccc(/C=C/C(=O)N3CCN(C)CC3)cc2)c1-c1ccccc1`: the melting point fell in the range of 195 to 196 °C.

`N#Cc1cc(C(F)(F)F)ccc1Nc1ccccc1[N+](=O)[O-]`: the melting point fell in the range of 160 to 161 °C.

`Nn1nc(-c2ccc(Cl)cc2)cc1OCCN1CCOCC1`: the melting point was 120 to 121 °C.

For `O=C(NCc1ccccc1)c1ccnc(-n2cnn(CC3CC3)c2=O)c1`, the melting point is 137 to 139 °C.

As for `CCCNC(=O)c1cnc2c(c1O)CN(C(=O)OCC)CC2`, the melting point was in the range of 199 to 201 °C.

As to `COCCOc1cc2c(Nc3cc(OC)c(Cl)cc3Cl)c(C#N)cnc2cc1OCC1CCN(C)CC1`, the melting point was 153 to 155 °C.

In turn, `Nc1ccccc1C(=O)CCC(=O)O` yielded a melting point of 103 to 107 °C.

Regarding `COC(=O)c1ccc(O)c(C(=O)CC(=O)c2cc(C)ccc2OC(C)C)c1`, the melting point lay within 85 to 86 °C.

In turn, `COc1ccc(CSCC(=O)NO)cc1` returned a melting point of 107 °C.

Take `FC(F)C(F)(F)Oc1cccc(Nc2nccc(-c3ccsc3)n2)c1`: the melting point was in the range of 110 to 111 °C.

As for `O=C(CN1CCN(C(c2ccc(F)cc2)c2ccc(F)cc2)CC1)Nc1cccc2ccccc12`, the melting point stood at 173 °C.

The molecule `COC(=O)N1CCCc2onc(OC)c2C1` had a melting point of 68 to 70 °C.

For the molecule `CC12CCC3c4cc(O)c(OCc5ccccc5)cc4CCC3C1CCC2OCc1ccccc1` (centres undefined), the melting point lay within 117 to 118 °C.

`CCOC(=O)C=Cc1ccc(NC(=O)Oc2ccccc2)cc1` had a melting point of 136 to 138 °C.

Turning to `CCOC(=O)c1c(N)sc(-c2ccc(OC)cc2)c1C`, the melting point was 79 to 80 °C.

Regarding `O=C(c1cc(C(F)(F)F)cc(C(F)(F)F)c1)N1CCC(N2CCN(Cc3ccccc3)CC2)CC1Cc1ccccc1` (centres undefined), the melting point is 144 °C.

`COc1ccc(C(=O)Nc2ccccc2)cc1Nc1cc(C)cc(C)c1` had a melting point of 198 to 199 °C.

`CC(=O)C(=O)Oc1c(C)cc(Nc2ccn(-c3ccccc3)n2)cc1C` displayed a melting point of 123 to 125 °C.

`CCOC(=O)C(=CNc1ccccc1)C(=O)OCC` showed a melting point of 45 to 46 °C.

On to `CCc1nc(N)sc1-c1ccncc1`, for which the melting point lay in the range of 209 to 211 °C.

`COc1cc(N)c(Cl)cc1C(=O)NCC1CCN(CCCCCCOc2ccccc2)CC1` returned a melting point of 113 to 115 °C.

For the molecule `C=C(C)C1(CC(C)C)CCN(C(Cc2ccccc2)C(=O)NC)C1=O` (centres undefined), the melting point lay within 91 to 92 °C.

As for `CNC(=O)c1ccc(-c2ccc3nnn(Cc4ccc5ncccc5c4)c3n2)cc1Cl`, the melting point fell in the range of 227 to 230 °C.

`CCCCCCCNC(=O)Nc1ccccc1C(=O)N1CCN(c2ccccc2OC)CC1` gave a melting point of 209 to 212 °C.

`Nc1nc(NCc2ccccc2)c2ncn(C3CC(F)C(CO)O3)c2n1` (centres undefined) gave a melting point of 90 to 94 °C.

`CCCCc1nc2c(N)nc3cc(/C=C/c4ccccc4)ccc3c2n1CC(C)C` displayed a melting point of 215 to 216 °C.
